Reference: patent US9227971B2, “Pyrazolo[1,5-a]pyrimidine compounds as mTOR inhibitors” (Merck Sharp & Dohme Corp., priority 2010, dated 2016)
pIC50: −log10 of the molar value. Like-named read-outs stand apart in the source and are kept apart here.

Columns and labels:
[1] = test system: phosphorylated 4E-BP1 Thr37/46 (p4E-BP1 Thr37/46), mTORC1 activity, PC3 cells; test: mTOR target engagement assay, immunofluorescent cell-based, p4E-BP1 Thr37/46 readout (mTORC1 activity); conditions: Homo sapiens, read-out: p4E-BP1 Thr37/46 IC50
Procedure, shortened: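 PTEN-mutant PC3 prostate cells were treated with serially diluted compound in 5% FBS F12 medium (0.25% DMSO) for ninety minutes at 37° C, glyoxal-fixed, then immunostained overnight at 4° C for p4E-BP1 Thr37/46 with an Alexa Fluor 488 secondary. IC50 came from four-parameter fits of fluorescence, DMSO-only wells defining 100%.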

[2] = test system: phosphorylated AKT Ser473 (pAKT S473), mTORC2 activity, PC3 cells; test: mTOR target engagement assay, immunofluorescent cell-based, pAKT S473 readout (mTORC2 activity); conditions: Homo sapiens
Procedure, shortened: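 After blocking, cells were stained overnight at 4 °C with anti-pAKT S473 antibody, then a fluorescent secondary; inhibition was read as reduced fluorescence intensity.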

[3] = PC-3, PC3 cells, compound treatment ninety minutes at 37° C.

CC(C)S(=O)(=O)c1c([C@@H]2C[C@H]3CC[C@@H](C2)N3C(=O)c2nnc[nH]2)nc2c(-c3ccc(-c4ccccc4)nc3)cnn2c1N [Compound 3.163, ((1R,3s,5S)-3-(7-amino-6-(isopropylsulfonyl)-3-(6-phenylpyridin-3-yl)pyrazolo[1,5-a]pyrimidin-5-yl)-8-azabicyclo[3.2.1]octan-8-yl)(4H-1,2,4-triazol-3-yl)methanone]
pIC50 ([1]; PC-3, Table 3-1, PC3 cells): 6.00 to 7.00 | pIC50 ([2]; PC-3, Table 3-1, PC3 cells): 6.00 to 7.00

CS(=O)(=O)c1c([C@@H]2C[C@H]3CC[C@@H](C2)N3C(=O)c2nnc[nH]2)nc2c(-c3ccc(-c4ccc(OC5CC5)cc4)nc3)cnn2c1N [Compound 3.61, ((1R,3s,5S)-3-(7-amino-3-(6-(4-cyclopropoxyphenyl)pyridin-3-yl)-6-(methylsulfonyl)pyrazolo[1,5-a]pyrimidin-5-yl)-8-azabicyclo[3.2.1]octan-8-yl)(4H-1,2,4-triazol-3-yl)methanone]
pIC50 ([1]; PC-3, Table 3-1, PC3 cells): 6.00 to 7.00 | pIC50 ([2]; PC-3, Table 3-1, PC3 cells): 6.00 to 7.00

CS(=O)(=O)c1c([C@H]2CC3CC[C@H](C2)N3C(=O)c2cn[nH]n2)nc2c(-c3cnn(-c4ccccc4)c3)cnn2c1N [Compound 3.176, ((1R,3s,5S)-3-(7-amino-6-(methylsulfonyl)-3-(1-phenyl-1H-pyrazol-4-yl)pyrazolo[1,5-a]pyrimidin-5-yl)-8-azabicyclo[3.2.1]octan-8-yl)(2H-1,2,3-triazol-4-yl)methanone]
pIC50 ([1]; PC-3, Table 3-1, PC3 cells): 6.00 to 7.00 | pIC50 ([2]; PC-3, Table 3-1, PC3 cells): 6.00 to 7.00

COc1ccc(-c2ccc(-c3cnn4c(N)c(C(C)=O)c([C@@H]5C[C@H]6CC[C@@H](C5)N6C(=O)c5nnc[nH]5)nc34)cn2)c(F)c1F [Compound 1.1.65, 1-(5-((1R,3s,5S)-8-(4H-1,2,4-triazole-3-carbonyl)-8-azabicyclo[3.2.1]octan-3-yl)-7-amino-3-(6-(2,3-difluoro-4-methoxyphenyl)pyridin-3-yl)pyrazolo[1,5-a]pyrimidin-6-yl)ethanone]
pIC50 [1, 3]: 7.00 to 9.00 | pIC50 [2, 3]: 7.00 to 9.00

COc1ccc(-c2ccc(-c3cnn4c(N)c(S(C)(=O)=O)c([C@@H]5C[C@H]6CC[C@@H](C5)N6C(=O)c5nnc[nH]5)nc34)cn2)c(F)c1 [Compound 3.32, ((1R,3s,5S)-3-(7-amino-3-(6-(2-fluoro-4-methoxyphenyl)pyridin-3-yl)-6-(methylsulfonyl)pyrazolo[1,5-a]pyrimidin-5-yl)-8-azabicyclo[3.2.1]octan-8-yl)(4H-1,2,4-triazol-3-yl)methanone]
pIC50 ([1]; PC-3, Table 3-1, PC3 cells): 7.00 to 9.00 | pIC50 ([2]; PC-3, Table 3-1, PC3 cells): 7.00 to 9.00

CC(=O)c1c([C@@H]2C[C@H]3CC[C@@H](C2)N3C(=O)c2nnc[nH]2)nc2c(-c3ccc(-c4cccc(F)c4F)nc3)cnn2c1N [Compound 1.1.61, 1-(5-((1R,3s,5S)-8-(4H-1,2,4-triazole-3-carbonyl)-8-azabicyclo[3.2.l]octan-3-yl)-7-amino-3-(6-(2,3-difluorophenyl)pyridin-3-yl)pyrazolo[1,5-a]pyrimidin-6-yl)ethanone]
pIC50 [1, 3]: 7.00 to 9.00 | pIC50 [2, 3]: 7.00 to 9.00

CC(=O)c1c([C@@H]2C[C@H]3CC[C@@H](C2)N3C(=O)c2cc(N)n[nH]2)nc2c(-c3ccc(C(O)(C(F)(F)F)C(F)(F)F)nc3)cnn2c1N [Compound 7.79, 1-(7-amino-5-((1R,3s,5S)-8-(3-amino-1H-pyrazole-5-carbonyl)-8-azabicyclo[3.2.1]octan-3-yl)-3-(6-(1,1,1,3,3,3-hexafluoro-2-hydroxypropan-2-yl)pyridin-3-yl)pyrazolo[1,5-a]pyrimidin-6-yl)ethanone]
pIC50 ([1]; PC-3, PC3 cells): 6.00 to 7.00 | pIC50 ([2]; PC-3, PC3 cells): 6.00 to 7.00

CC(=O)c1c([C@@H]2C[C@H]3CC[C@@H](C2)N3C(=O)c2nnc[nH]2)nc2c(-c3ccc(-n4cnc(C)c4)nc3)cnn2c1N [Compound 1.1.128, 1-(5-((1R,3s,5S)-8-(4H-1,2,4-triazole-3-carbonyl)-8-azabicyclo[3.2.1]octan-3-yl)-7-amino-3-(6-(4-methyl-1H-imidazol-1-yl)pyridin-3-yl)pyrazolo[1,5-a]pyrimidin-6-yl)ethanone]
pIC50 [1, 3]: < 5.00 | pIC50 [2, 3]: < 5.00

CC(=O)c1c([C@@H]2C[C@H]3CC[C@@H](C2)N3C(=O)c2nnc[nH]2)nc2c(-c3cnc(C(C)(C)O)nc3)cnn2c1N [Compound 1.1.180, 1-(5-((1R,3s,5S)-8-(4H-1,2,4-triazole-3-carbonyl)-8-azabicyclo[3.2.1]octan-3-yl)-7-amino-3-(2-(2-hydroxypropan-2-yl)pyrimidin-5-yl)pyrazolo[1,5-a]pyrimidin-6-yl)ethanone]
pIC50 [1, 3]: 6.00 to 7.00 | pIC50 [2, 3]: 6.00 to 7.00

COc1ccc(-c2ccc(-c3cnn4c(N)c(S(C)(=O)=O)c([C@@H]5C[C@H]6CC[C@@H](C5)N6C(=O)c5nnc[nH]5)nc34)cn2)cc1OC [Compound 3.39, ((1R,3s,5S)-3-(7-amino-3-(6-(3,4-dimethoxyphenyl)pyridin-3-yl)-6-(methylsulfonyl)pyrazolo[1,5-a]pyrimidin-5-yl)-8-azabicyclo[3.2.1]octan-8-yl)(4H-1,2,4-triazol-3-yl)methanone]
pIC50 ([1]; PC-3, Table 3-1, PC3 cells): 6.00 to 7.00 | pIC50 ([2]; PC-3, Table 3-1, PC3 cells): 6.00 to 7.00

CS(=O)(=O)c1c([C@@H]2C[C@H]3CC[C@@H](C2)N3C(=O)c2ccn[nH]2)nc2c(-c3ccc(-c4ccccc4)nc3)cnn2c1N [Compound 3.74, ((1R,3s,5S)-3-(7-amino-6-(methylsulfonyl)-3-(6-phenylpyridin-3-yl)pyrazolo[1,5-a]pyrimidin-5-yl)-8-azabicyclo[3.2.1]octan-8-yl)(1H-pyrazol-5-yl)methanone]
pIC50 ([1]; PC-3, Table 3-1, PC3 cells): 7.00 to 9.00 | pIC50 ([2]; PC-3, Table 3-1, PC3 cells): 7.00 to 9.00

CC(=O)c1c([C@@H]2C[C@H]3CC[C@@H](C2)N3C(=O)c2nnc[nH]2)nc2c(-c3ccc(-c4ncc[nH]4)nc3)cnn2c1N [Compound 6.4, 1-(3-(6-(1H-imidazol-2-yl)pyridin-3-yl)-5-((1R,3s,5S)-8-(4H-1,2,4-triazole-3-carbonyl)-8-azabicyclo[3.2.1]octan-3-yl)-7-aminopyrazolo[1,5-a]pyrimidin-6-yl)ethanone]
pIC50 ([1]; PC-3, Table 6-1, PC3 cells): 7.00 to 9.00 | pIC50 ([2]; PC-3, Table 6-1, PC3 cells): 7.00 to 9.00

Cc1nnc(C(=O)N2[C@@H]3CC[C@H]2C[C@H](c2nc4c(-c5ccc(-c6nc7c(s6)CCC7)nc5)cnn4c(N)c2S(C)(=O)=O)C3)[nH]1 [Compound 3.195, ((1R,3s,5S)-3-(7-amino-3-(6-(5,6-dihydro-4H-cyclopenta[d]thiazol-2-yl)pyridin-3-yl)-6-(methylsulfonyl)pyrazolo[1,5-a]pyrimidin-5-yl)-8-azabicyclo[3.2.1]octan-8-yl)(5-methyl-4H-1,2,4-triazol-3-yl)methanone]
pIC50 ([1]; PC-3, Table 3-1, PC3 cells): 5.00 to 6.00 | pIC50 ([2]; PC-3, Table 3-1, PC3 cells): 5.00 to 6.00

COCc1c([C@@H]2C[C@H]3CC[C@@H](C2)N3C(=O)c2nnc[nH]2)nc2c(-c3ccc(-c4ccccc4)nc3)cnn2c1N [Compound 5.4, ((1R,3s,5S)-3-(7-amino-6-(methoxymethyl)-3-(6-phenylpyridin-3-yl)pyrazolo[1,5-a]pyrimidin-5-yl)-8-azabicyclo[3.2.1]octan-8-yl)(4H-1,2,4-triazol-3-yl)methanone]
pIC50 [1, 3]: 7.00 to 9.00 | pIC50 [2, 3]: 7.00 to 9.00

Nc1c(C2CC2)c([C@@H]2C[C@H]3CC[C@@H](C2)N3C(=O)c2nnc[nH]2)nc2c(-c3cnc4c(c3)OCc3cn[nH]c3-4)cnn12 [Compound 8.55]
pIC50 ([1]; PC-3, PC3 cells): 5.00 to 6.00 | pIC50 ([2]; PC-3, PC3 cells): 5.00 to 6.00

CC(=O)c1c([C@@H]2C[C@H]3CC[C@@H](C2)N3C(=O)c2ccn[nH]2)nc2c(-c3ccc(-c4ccn(C)n4)nc3)cnn2c1N [Compound 1.1.121, 1-(5-((1R,3s,5S)-8-(1H-pyrazole-5-carbonyl)-8-azabicyclo[3.2.1]octan-3-yl)-7-amino-3-(6-(1-methyl-1H-pyrazol-3-yl)pyridin-3-yl)pyrazolo[1,5-a]pyrimidin-6-yl)ethanone]
pIC50 [1, 3]: 6.00 to 7.00 | pIC50 [2, 3]: 7.00 to 9.00
